From US20090286722A1 (priority 2005, published 2009)

Tests used:
[1] = molecular target: T1, human GIP receptor (Homo sapiens, UniProt P48546); test: Intracellular cAMP production in GIP-receptor transfected CHL cells; format: cell-based
T1 construct: expressed in transfected cells; host or cells: Chinese hamster lung (CHL) fibroblasts
T1 sequence (P48546 22-466): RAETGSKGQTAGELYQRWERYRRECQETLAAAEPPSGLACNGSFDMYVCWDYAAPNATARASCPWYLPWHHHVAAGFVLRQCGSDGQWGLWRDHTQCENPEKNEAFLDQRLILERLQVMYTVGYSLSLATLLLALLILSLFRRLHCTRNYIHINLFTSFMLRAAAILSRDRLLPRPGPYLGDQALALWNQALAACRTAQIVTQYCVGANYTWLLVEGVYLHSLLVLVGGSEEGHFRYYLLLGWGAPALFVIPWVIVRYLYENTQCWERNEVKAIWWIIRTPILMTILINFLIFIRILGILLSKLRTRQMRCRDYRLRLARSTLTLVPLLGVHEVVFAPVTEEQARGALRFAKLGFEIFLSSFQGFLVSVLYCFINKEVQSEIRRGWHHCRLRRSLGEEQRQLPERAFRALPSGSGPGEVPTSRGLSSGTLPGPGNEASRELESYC
Procedure: The cells were then incubated at 37° C. for 6 hours in 1 ml DMEM, supplemented with 0.5% (w/v) BSA and subsequently washed twice with HBS buffer (Hanks Buffered Saline solution). […] The medium was subsequently removed and the cells lysed with 1 ml of 5% trichloroacetic acid containing 0.1 mM unlabelled cAMP and 0.1 mM unlabelled ATP. The intracellular tritiated cAMP was then separated on Dowex and alumina exchange resins (Life Science Research, Larne, UK).

[2] = system: D3 mouse ES cell line; test: Differentiation of D3 mouse ES cells to beta cell phenotype, insulin release and insulin/C-peptide content; format: cell-based
Procedure: The D3 mouse ES cell line was routinely cultured on tissue culture plastic coated with 0.1% (w/v) gelatine in DMEM (25 mM glucose) containing 15% foetal bovine serum (FBS), 2 mM glutamine, 50 U/ml penicillin/streptomycin, non-essential amino acids, 0.1 mM β-mercaptoethanol, and 1000 U/ml LIF (leukaemia inhibitory factor). Medium was changed daily and cultures were passaged every 2 days onto fresh geletin-coated plates at a split ratio of 1:5. The cells were passaged by washing the cultures with phosphate-buffer saline and then detached from the plate with a trypsin (2.5 g/L)-EDTA (1 mM) solution. Prior to seeding into new flasks the ES cells were dissociated to single cells suspensions by repeated pipetting.
For differentiation of D3 mouse ES cells, an established protocol was used (Lumelsky, N. et al., 2001, Science 292(5520):1389-94). Briefly, LIF was removed from the culture medium, EBs (embryonic bodies) were then formed by growing the cells as non-adherent clusters. For the selection of nestin positive precursor cells, medium was changed to serum free ITSFn medium and for expanding these progenitors, cells were incubated in N2 serum free medium for 7 days (stage 4) and then differentiated into insulin-containing cell clusters by incubation in N2 serum free medium without bFGF, supplemented with 10 mM nicotinamide for 7 days (stage 5) (control protocol). […] The differentiated cells were harvested at the end of stage 4 and 5 and samples were seeded onto 24 well plates for insulin and C-peptide studies. Insulin release from differentiated cells from stages 4 and 5 were determined using cell monolayers. The cells were harvested with the aid of trypsin/EDTA (Gibco), seeded into 24-multiwell plates (Nunc, Rosklide, Denmark) at a density of 0.1×10^6 cells per well, and allowed to attach overnight.
Prior to the acute test, cells were washed three times and preincubated for 40 minutes at 37° C. in a 1.0 ml Krebs Ringer bicarbonate buffer (115 mM NaCl, 4.7 mM KCl, 1.28 mM CaCl2, 1.2 mM KH2PO4, 1.2 mM MgSO4, 10 mM NaHCO3, 5 g/l bovine serum albumin, pH 7.4) supplemented with 1.1 mM glucose. Test incubations were performed for 20 minutes at 37° C. using the same buffer supplemented with 5.6 mM glucose in the absence (control) and presence of various test agents as indicated in the Figures. After incubation, aliquots of buffer were removed and stored at −20° C. for insulin radioimmunoassay. For assessment of cellular hormone contents, the buffer was completely removed and […] of acid-ethanol solution (1.5% (v/v) HCl, 75% (v/v) ethanol, 23.5% (v/v) H2O) was added. The cells were disrupted with the aid of a pasture pipette and incubated overnight at 4° C. prior to centrifugation (900 rpm) and stored at −20° C.

[3] = molecular target: dipeptidyl peptidase IV (Sus scrofa, UniProt P22411); test: DPP IV degradation, % intact peptide by HPLC; format: in vitro ADME, porcine; details: pig, purified porcine dipeptidyl peptidase IV (DPP IV), 37° C., pH 7.8
Procedure: (§1) HPLC peak area data were used to calculate the percentage intact peptide remaining at the various time points during the incubation.

[4] = molecular target: purified porcine dipeptidyl peptidase IV (Sus scrofa, UniProt P22411); test: DPP IV degradation, % intact peptide by HPLC; format: in vitro ADME; details: 37° C., pH 7.8
Procedure: as §1

[5] = system: ob/ob mice; test: Acute glucose lowering and insulin release, peptide given i.p. with glucose to 18 hour fasted ob/ob mice
Procedure: Obese diabetic (ob/ob) mice derived from the colony maintained at Aston University, UK (23) were used at 12-16 weeks of age. […] Drinking water and standard rodent maintenance diet (Trouw Nutrition, Cheshire, UK) were freely available.
Food intake and body weight were recorded daily from 5 days before commencement of the treatment regimes. Plasma glucose and insulin concentrations (10:00 h) were monitored at 2-4 day intervals. […] All acute tests were commenced at 10:00 h. […] Serum samples were taken for determination of glucagon concentrations. All other blood samples were collected from the cut tip of the tail vein of conscious mice into chilled fluoride/heparin coated glucose microcentrifuge tubes (Sarstedt, Nümbrecht, Germany) at the times indicated in the Figures. Blood samples were immediately centrifuged using a Beckman microcentrifuge (Beckman Instruments, Galway, Ireland) for 30 seconds at 13,000×g. The resulting plasma was then aliquoted into fresh tubes and stored at −20° C. prior to glucose and insulin determinations.

[6] = culture media supplemented with 1×10^-6 M peptide, Stage 4
[7] = culture media supplemented with 1×10^-6 M peptide, Stage 5

Sequence of dipeptidyl peptidase IV (P22411 whole entry): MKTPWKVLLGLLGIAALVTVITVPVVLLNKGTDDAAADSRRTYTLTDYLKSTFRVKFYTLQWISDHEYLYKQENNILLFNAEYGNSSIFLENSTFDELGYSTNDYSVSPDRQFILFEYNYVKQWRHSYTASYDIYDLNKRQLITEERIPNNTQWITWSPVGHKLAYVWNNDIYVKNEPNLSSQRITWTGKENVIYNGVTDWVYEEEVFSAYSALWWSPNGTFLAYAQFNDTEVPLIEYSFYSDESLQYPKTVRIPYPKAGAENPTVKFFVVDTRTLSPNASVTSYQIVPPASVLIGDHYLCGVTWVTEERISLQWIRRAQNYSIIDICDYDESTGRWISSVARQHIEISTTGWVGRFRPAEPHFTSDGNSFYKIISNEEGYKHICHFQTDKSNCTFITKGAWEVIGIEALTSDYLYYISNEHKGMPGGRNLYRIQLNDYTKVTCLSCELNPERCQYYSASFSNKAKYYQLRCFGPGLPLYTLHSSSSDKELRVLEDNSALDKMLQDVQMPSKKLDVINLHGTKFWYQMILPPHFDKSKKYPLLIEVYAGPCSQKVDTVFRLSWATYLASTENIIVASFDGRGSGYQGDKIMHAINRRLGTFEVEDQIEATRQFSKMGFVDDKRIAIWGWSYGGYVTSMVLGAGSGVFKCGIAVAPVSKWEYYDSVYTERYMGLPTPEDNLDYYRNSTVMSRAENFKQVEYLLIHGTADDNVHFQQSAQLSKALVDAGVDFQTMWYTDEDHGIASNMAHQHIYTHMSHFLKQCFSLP
Sequence of purified porcine dipeptidyl peptidase IV (P22411 whole entry): as above

CCCCCCCCCCCCCCCC(=O)NCCCC[C@H](NC(=O)[C@H](CC(=O)O)NC(=O)[C@H](CCSC)NC(=O)[C@H](C)NC(=O)[C@@H](NC(=O)[C@H](CO)NC(=O)[C@H](Cc1ccc(O)cc1)NC(=O)[C@H](CC(=O)O)NC(=O)[C@H](CO)NC(=O)[C@@H](NC(=O)[C@H](Cc1ccccc1)NC(=O)[C@@H](NC(=O)CNC(=O)[C@H](CCC(=O)O)NC(=O)[C@H](C)NC(=O)[C@@H](N)Cc1ccc(O)cc1)[C@@H](C)O)[C@@H](C)CC)[C@@H](C)CC)C(=O)N[C@H](C(=O)N[C@@H](Cc1c[nH]cn1)C(=O)N[C@@H](CCC(N)=O)C(=O)N[C@@H](CCC(N)=O)C(=O)N[C@@H](CC(=O)O)C(=O)N[C@@H](Cc1ccccc1)C(=O)N[C@H](C(=O)N[C@@H](CC(N)=O)C(=O)N[C@@H](Cc1c[nH]c2ccccc12)C(=O)N[C@@H](CC(C)C)C(=O)N[C@@H](CC(C)C)C(=O)N[C@@H](C)C(=O)N[C@@H](CCC(N)=O)C(=O)N[C@@H](CCCCN)C(=O)NCC(=O)N[C@@H](CCCCN)C(=O)N[C@@H](CCCCN)C(=O)N[C@@H](CC(N)=O)C(=O)N[C@@H](CC(=O)O)C(=O)N[C@@H](Cc1c[nH]c2ccccc12)C(=O)N[C@@H](CCCCN)C(=O)N[C@@H](Cc1c[nH]cn1)C(=O)N[C@@H](CC(N)=O)C(=O)N[C@H](C(=O)N[C@H](C(=O)N[C@@H](CCC(N)=O)C(=O)O)[C@@H](C)O)[C@@H](C)CC)C(C)C)[C@@H](C)CC [GIP(LysPAL^16)]
EC50 [1]: 2.9 nM | glucose-induced insulin release of differentiated stage 4 cells, modified versus control protocol ([2]; 1×10^-6 M peptide in media, stage 4, 0-22.0 mM glucose): significantly higher | response of differentiated stage 5 cells to glucose ([2]; 1×10^-6 M peptide in media, stage 5): appear not respond to glucose | increase in C-peptide content compared to control, stage 4 ([2]; 1×10^-6 M peptide, stage 4): 1.5 fold | increase in C-peptide content compared to control, stage 5 ([2]; 1×10^-6 M peptide, stage 5): 1.3 fold | C-Peptide content of differentiated D3 cluster cells, Stage 4 [2, 6]: 124.5 ± 3.13 pmol/mg protein/20 mins | Insulin content of differentiated D3 cluster cells, Stage 4 [2, 6]: 9154 ± 291.1 pmol/mg protein/20 mins | C-Peptide content of differentiated D3 cluster cells, Stage 5 [2, 7]: 121.9 ± 3.43 pmol/mg protein/20 mins | Insulin content of differentiated D3 cluster cells, Stage 5 [2, 7]: 8532 ± 626.5 pmol/mg protein/20 mins | remaining at 2 h, 2 mM ([3]; 2 h incubation with DPP IV (5 mU), read-out: % Intact peptide remaining after time (h) 2): 100% | remaining at 8 h, 2 mM ([3]; 8 h incubation with DPP IV (5 mU), read-out: % Intact peptide remaining after time (h) 8): 100% | remaining at 24 h, 2 mM ([3]; 24 h incubation with DPP IV (5 mU), read-out: % Intact peptide remaining after time (h) 24): 100% | % Intact peptide remaining after time (h) 0 ([4]; 0 h incubation with DPP IV (5 mU)): 100% | % Intact peptide remaining after time (h) 24 ([4]; 24 h incubation with DPP IV (5 mU)): remained fully intact | plasma glucose concentrations and AUC (0-60 min) compared to glucose alone ([5]; 25 nmol/kg i.p. with glucose 18 mmol/kg): significantly reduced | overall enhancement of insulin release over native GIP ([5]; 25 nmol/kg i.p. with glucose, insulin AUC 0-60 min): 2.4 fold
